ChEMBL document CHEMBL5058564, “EUbOPEN Chemogenomics Library 2 (Incucyte)” (2022)

Assays:
Type in all cases: toxicity, cell-based
HEK-293T = experiment: Incucyte cell viability with HEK293T; conditions: human, 10 µM, compound concentration 10 uM
U2OS = experiment: Incucyte cell viability with U2OS; conditions: human, 10 µM, compound concentration 10 uM
Fibroblast = experiment: Incucyte cell viability with human fibroblast; conditions: 10 µM, compound concentration 10 uM
[1] = 6 h, replicate number 1, timepoint 6 hours
[2] = 6 h, replicate number 2, timepoint 6 hours
[3] = 12 h, replicate number 1, timepoint 12 hours
[4] = 18 h, replicate number 1, timepoint 18 hours
[5] = 24 h, replicate number 1, timepoint 24 hours
[6] = 0 h, replicate number 2, timepoint 0 hours
[7] = 12 h, replicate number 2, timepoint 12 hours
[8] = 18 h, replicate number 2, timepoint 18 hours
[9] = 0 h, replicate number 1, timepoint 0 hours
[10] = 24 h, replicate number 2, timepoint 24 hours
Note: unitless GR value; below 1 slowed growth and below 0 cell loss.

| Structure (SMILES) | Growth Rate (HEK-293T; [1]) | Growth Rate (HEK-293T; [2]) | Growth Rate (HEK-293T; [3]) | Growth Rate (HEK-293T; [4]) | Growth Rate (HEK-293T; [5]) | Growth Rate (U2OS; [6]) | Growth Rate (U2OS; [7]) | Growth Rate (U2OS; [8]) | Growth Rate (Fibroblast; [9]) | Growth Rate (Fibroblast; [6]) | Growth Rate (Fibroblast; [1]) | Growth Rate (Fibroblast; [5]) | Growth Rate (HEK-293T; [10]) | Growth Rate (U2OS; [4]) | Growth Rate (U2OS; [5]) | Growth Rate (U2OS; [10]) | Growth Rate (Fibroblast; [3]) | Growth Rate (Fibroblast; [7]) | Growth Rate (Fibroblast; [4]) | Growth Rate (U2OS; [9]) | further results |
| --- | --- | --- | --- | --- | --- | --- | --- | --- | --- | --- | --- | --- | --- | --- | --- | --- | --- | --- | --- | --- | --- |
| COc1ccc2c(c1OCc1ccccc1)C[C@@H](C(=O)O)N(C(=O)C(c1ccccc1)c1ccccc1)C2 [OLODANRIGAN] | 0.62 | 0.64 | 0.74 | 0.8 | 0.86 | -1 | 0.89 | 0.98 | 0.93 | 0.27 | 0.24 | 0.83 | – | – | – | – | – | – | – | – | – |
| S=C(NCCCc1c[nH]cn1)NCCCN(Cc1ccc(Cl)c(Cl)c1)c1ccc(Br)cn1 | 0.16 | -0.21 | 0.08 | 0.15 | 0.15 | -1 | 0.84 | 0.68 | 0.28 | 0.91 | -0.23 | -0.16 | 0.2 | 0.88 | 0.83 | 0.67 | 0.17 | 0.18 | -0.18 | – | Growth Rate (HEK-293T; [8]): 0.19; Growth Rate (Fibroblast; [2]): 0.5; Growth Rate (Fibroblast; [8]): 0.55; Growth Rate (Fibroblast; [10]): 0.74 |
| C[C@@](Cc1c[nH]c2ccccc12)(NC(=O)Nc1ccc([N+](=O)[O-])cc1)C(=O)NCC1(c2ccccn2)CCCCC1 | -0.16 | -0.01 | -0.39 | -0.33 | -0.26 | – | -0.2 | -0.3 | – | – | -0.69 | -0.6 | -0.13 | -0.21 | -0.26 | -0.21 | -0.66 | -0.59 | -0.63 | 0.29 | Growth Rate (HEK-293T; [7]): -0.14; Growth Rate (HEK-293T; [8]): -0.15; Growth Rate (U2OS; [1]): 0.28; Growth Rate (U2OS; [2]): 0.12; Growth Rate (U2OS; [3]): -0.03; Growth Rate (Fibroblast; [2]): -0.88; Growth Rate (Fibroblast; [8]): -0.53; Growth Rate (Fibroblast; [10]): -0.51 |
| Cc1cc(OCCCS(C)(=O)=O)cc(C)c1-c1cccc(COc2ccc3c(c2)OC[C@H]3CC(=O)O)c1 | – | – | – | 0.7 | 0.69 | – | 0.89 | 0.9 | – | 0.69 | -0.03 | 0.78 | – | – | – | – | 1 | 0.55 | – | 0.26 | Growth Rate (U2OS; [2]): 0.73; Growth Rate (Fibroblast; [2]): 0.19; Growth Rate (Fibroblast; [8]): 0.31; Growth Rate (Fibroblast; [10]): 0.67 |
| Cc1onc(-c2ccccc2Cl)c1C(=O)N(C)c1ccc(Cl)cc1 | – | – | – | – | – | – | 0.67 | 0.85 | -0.53 | 0.86 | – | – | – | – | – | 0.96 | – | – | – | – | Growth Rate (HEK-293T; [6]): 0.62; Growth Rate (U2OS; [2]): 0.56 |
| N#Cc1cc(F)cc(-c2nc(-c3ccc(F)cn3)no2)c1 | – | – | – | – | – | -0.87 | 0.86 | – | – | 0.68 | -0.02 | 0.6 | – | 0.57 | 0.65 | – | 0.63 | – | 0.84 | – | Growth Rate (HEK-293T; [9]): 0.85; Growth Rate (HEK-293T; [6]): 0.21; Growth Rate (U2OS; [1]): -0.32; Growth Rate (U2OS; [2]): 0.62; Growth Rate (U2OS; [3]): 0.46 |
| O=C(NCCN1CCC(n2c(=O)[nH]c3cc(Cl)ccc32)CC1)c1ccc(F)cc1 [HALOPEMIDE] | -0.01 | 0.96 | 0.56 | 0.67 | 0.5 | 0.14 | – | 1 | – | – | -0.01 | -0.39 | – | – | – | – | -0.23 | 0.66 | -0.17 | 0.7 | Growth Rate (HEK-293T; [7]): 0.68; Growth Rate (Fibroblast; [2]): 0.12 |
| CC(=O)NCC(=O)N1[C@@H]2CC[C@H]1c1ccc(Nc3ncc(C(F)(F)F)c(NC4CCC4)n3)cc12 [PF-03814735] | -0.73 | -0.88 | -0.54 | -0.45 | -0.31 | – | 0.56 | 0.22 | -0.04 | -0.37 | – | 0.26 | -0.41 | 0.36 | 0.28 | 0.12 | 0.58 | – | 0.72 | -0.24 | Growth Rate (HEK-293T; [7]): -0.65; Growth Rate (HEK-293T; [8]): -0.48; Growth Rate (U2OS; [3]): 0.23; Growth Rate (Fibroblast; [8]): 0.79; Growth Rate (Fibroblast; [10]): 0.62 |
| CC(C)c1c(NC(=O)Nc2ccc(Cl)cc2)c(=O)n(-c2ccccc2)n1C | – | 0.74 | 0.65 | 0.55 | 0.53 | -0.97 | – | – | 0.29 | 0.39 | 0.31 | 0.69 | 0.96 | – | – | – | 0.35 | 0.54 | 0.76 | -0.9 | Growth Rate (HEK-293T; [6]): 0.92; Growth Rate (HEK-293T; [7]): 0.96; Growth Rate (Fibroblast; [8]): 0.54; Growth Rate (Fibroblast; [10]): 0.44 |
| N=C(N)NCCC[C@H](NC(=O)COCC(c1ccccc1)c1ccccc1)C(=O)O.O=C(O)C(F)(F)F | 1 | – | 0.7 | 0.84 | – | 0.34 | 0.86 | 0.91 | – | 0.91 | 0.91 | 0.79 | – | 0.7 | 0.8 | 1 | 0.66 | – | 0.46 | 0.29 | Growth Rate (HEK-293T; [9]): 0.96; Growth Rate (HEK-293T; [6]): 0.2; Growth Rate (U2OS; [1]): 0.54; Growth Rate (U2OS; [2]): 0.72; Growth Rate (U2OS; [3]): 0.84 |
| CCCN1CCO[C@H]2c3cc(O)ccc3OC[C@@H]21.Cl | – | – | – | – | – | – | – | – | 0.77 | 0.29 | – | 0.8 | 0.96 | 0.92 | – | – | 0.98 | – | 0.72 | 0.55 | Growth Rate (HEK-293T; [9]): 0.72; Growth Rate (HEK-293T; [6]): -0.13; Growth Rate (U2OS; [1]): 0.6; Growth Rate (U2OS; [3]): 0.93 |
